In patent US20250064867A1, “METHOD FOR PREVENTING OR TREATING MUSCLE DISEASE” (KOREA RESEARCH INSTITUTE OF BIOSCIENCE AND BIOTECHNOLOGY, priority 2018, published 2025):

Tested on: C2C12 myoblasts
Assay: WST-1 cytotoxicity assay on C2C12
Format: cell-based, mouse
Details: 24 hours
Procedure: First, mouse skeletal muscle C2C12 cell line (CRL-1772, ATCC, Manassas, VA, USA) was purchased and used. To assess the cytotoxicity of dexamethasone and HB05P on C2C12, a WST-1 assay (Cell Proliferation Reagent WST-1, 5015944001, Roche, Basel, Switzerland) was performed. Myoblasts (C2C12) were dispensed at a density of 2.0×10^4 cells/well into 96-well plates (Corning® 96-well Clear Polystyrene Microplates, 3598, Corning, Glendale, AZ, USA) and cultured at 37° C. in 5% CO2 conditions for 24 hours. The cultured cells were then treated with varying concentrations of dexamethasone (0, 250, 500, 750, 1000 μM) and HB05P (0, 1.0×10^3, 1.0×10^4, 1.0×10^5, 1.0×10^6, 1.0×10^7 cells/well). After 24 hours of incubation, cell viability was measured using a VersaMax Microplate Reader (Molecular devices, San Jose, CA, USA).

Q: For C[C@@H]1C[C@H]2[C@@H]3CCC4=CC(=O)C=C[C@]4(C)[C@@]3(F)[C@@H](O)C[C@]2(C)[C@@]1(O)C(=O)CO [dexamethasone], which “cell viability, trend over concentration” value (0, 250, 500, 750, 1000 μM) is on record?
A: The value was “concentration-dependent decrease”.

Q: What about the cell viability (250 μM, untreated = 100%) of the same compound?
A: Its cell viability is 66.6%.
